Laboratory results reported in ChEMBL document CHEMBL1201862, “PubChem BioAssay data set” (2004).
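Where inhibition never reached the appropriate level, the endpoint shown equals the highest concentration tested. Otherwise, values were interpolated linearly from a five-concentration, 48-hour dose response in 96-well plates. The concentration for 50% growth inhibition is given as GI50.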 Calls of active or inactive are those of the source. No stated cut-off is given here; in the data, active = GI50 up to about 1.1 µM and inactive = higher.

Experiments:
Assay in all cases: NCI tumour cell line growth inhibition, 48 h
SW-620 = system: SW-620
U-251 = system: U-251
RPMI-8226 = system: RPMI-8226
OVCAR-3 = system: OVCAR-3
KM12 = system: KM12
SF-295 = system: SF-295
IGROV-1 = system: IGROV-1
SK-MEL-28 = system: SK-MEL-28
SNB-75 = system: SNB-75
DMS-114 = system: DMS-114
LXFL 529 = system: LXFL 529
HOP-92 = system: HOP-92
OVCAR-5 = system: OVCAR-5
M19-MEL = system: M19-MEL
RXF 393 = system: RXF 393
SF-268 = system: SF-268
SR = system: SR
OVCAR-4 = system: OVCAR-4
DMS-273 = system: DMS-273
SK-OV-3 = system: SK-OV-3
ACHN = system: ACHN
TK-10 = system: TK-10
Malme-3M = system: Malme-3M
A549 = system: A549
NCI-H23 = system: NCI-H23
EKVX = system: EKVX
UACC-62 = system: UACC-62
SNB-19 = system: SNB-19
COLO 205 = system: COLO 205
UACC-257 = system: UACC-257
HCC 2998 = system: HCC 2998
SK-MEL-2 = system: SK-MEL-2
NCI-H226 = system: NCI-H226
UO-31 = system: UO-31
K562 = system: K562
786-0 = system: 786-0
SNB-78 = system: SNB-78
HCT-116 = system: HCT-116
KM-20L2 = system: KM-20L2
HT-29 = system: HT-29
SK-MEL-5 = system: SK-MEL-5
SF-539 = system: SF-539
MOLT-4 = system: MOLT-4
SN12C = system: SN12C
HCT-15 = system: HCT-15
OVCAR-8 = system: OVCAR-8
HL-60 = system: HL-60
CCRF-CEM = system: CCRF-CEM
LOX IMVI = system: LOX IMVI
DLD-1 = system: DLD-1
NCI-H460 = system: NCI-H460
M14 = system: M14
HOP-62 = system: HOP-62
NCI-H522 = system: NCI-H522

## NCCCOCC(=O)O
SW-620
  GI50: > 100 µM (inactive)
U-251
  GI50: > 100 µM (inactive)
RPMI-8226
  GI50: > 100 µM (inactive)
OVCAR-3
  GI50: > 100 µM (inactive)
KM12
  GI50: > 100 µM (inactive)
SF-295
  GI50: > 100 µM (inactive)
IGROV-1
  GI50: > 100 µM (inactive)
SK-MEL-28
  GI50: > 100 µM (inactive)
SNB-75
  GI50: > 100 µM (inactive)
DMS-114
  GI50: > 100 µM (inactive)
LXFL 529
  GI50: > 100 µM (inactive)
HOP-92
  GI50: > 100 µM (inactive)
OVCAR-5
  GI50: > 100 µM (inactive)
M19-MEL
  GI50: > 100 µM (inactive)
RXF 393
  GI50: > 100 µM (inactive)
SF-268
  GI50: > 100 µM (inactive)
SR
  GI50: > 100 µM (inactive)
OVCAR-4
  GI50: > 100 µM (inactive)
DMS-273
  GI50: > 100 µM (inactive)
SK-OV-3
  GI50: > 100 µM (inactive)
ACHN
  GI50: > 100 µM (inactive)
TK-10
  GI50: > 100 µM (inactive)
Malme-3M
  GI50: > 100 µM (inactive)
A549
  GI50: > 100 µM (inactive)
NCI-H23
  GI50: > 100 µM (inactive)
EKVX
  GI50: > 100 µM (inactive)
UACC-62
  GI50: > 100 µM (inactive)
SNB-19
  GI50: > 100 µM (inactive)
COLO 205
  GI50: > 100 µM (inactive)
UACC-257
  GI50: > 100 µM (inactive)
HCC 2998
  GI50: > 100 µM (inactive)
SK-MEL-2
  GI50: > 100 µM (inactive)
NCI-H226
  GI50: > 100 µM (inactive)
UO-31
  GI50: > 100 µM (inactive)
K562
  GI50: > 100 µM (inactive)
786-0
  GI50: > 100 µM (inactive)
SNB-78
  GI50: > 100 µM (inactive)
HCT-116
  GI50: > 100 µM (inactive)
KM-20L2
  GI50: > 100 µM (inactive)
HT-29
  GI50: > 100 µM (inactive)
SK-MEL-5
  GI50: > 100 µM (inactive)
SF-539
  GI50: > 100 µM (inactive)
MOLT-4
  GI50: > 100 µM (inactive)
SN12C
  GI50: > 100 µM (inactive)
HCT-15
  GI50: > 100 µM
OVCAR-8
  GI50: > 100 µM (inactive)

## O=S(=O)(c1cccc(N=C=S)c1)c1cccc(N=C=S)c1
SW-620
  GI50: > 10 µM (inactive)
U-251
  GI50: 18.9 µM (inactive)
HL-60
  GI50: 21.7 µM (inactive)
RPMI-8226
  GI50: 28.7 µM (inactive)
OVCAR-3
  GI50: 11.6 µM (inactive)
KM12
  GI50: 27.5 µM (inactive)
SF-295
  GI50: 19.5 µM (inactive)
IGROV-1
  GI50: 18.7 µM (inactive)
SK-MEL-28
  GI50: 18.2 µM (inactive)
DMS-114
  GI50: 15.5 µM (inactive)
LXFL 529
  GI50: 15.2 µM (inactive)
CCRF-CEM
  GI50: 5.51 µM (inactive)
OVCAR-5
  GI50: 47 µM (inactive)
M19-MEL
  GI50: > 10 µM (inactive)
RXF 393
  GI50: 8.11 µM (inactive)
SF-268
  GI50: 18.2 µM (inactive)
DMS-273
  GI50: 18.7 µM (inactive)
SK-OV-3
  GI50: 19.2 µM (inactive)
ACHN
  GI50: 18.6 µM (inactive)
TK-10
  GI50: 20 µM (inactive)
Malme-3M
  GI50: 18.9 µM (inactive)
A549
  GI50: > 100 µM (inactive)
NCI-H23
  GI50: 17.1 µM (inactive)
LOX IMVI
  GI50: 17.7 µM (inactive)
EKVX
  GI50: > 100 µM (inactive)
UACC-62
  GI50: 19.1 µM (inactive)
SNB-19
  GI50: 64.1 µM (inactive)
COLO 205
  GI50: 19.5 µM (inactive)
UACC-257
  GI50: 20.4 µM (inactive)
HCC 2998
  GI50: 21.8 µM (inactive)
SK-MEL-2
  GI50: 18.5 µM (inactive)
DLD-1
  GI50: 19.2 µM (inactive)
UO-31
  GI50: 28.7 µM (inactive)
K562
  GI50: 16.3 µM (inactive)
786-0
  GI50: 16 µM (inactive)
SNB-78
  GI50: 30.6 µM (inactive)
HCT-116
  GI50: 18.1 µM (inactive)
KM-20L2
  GI50: 31.5 µM (inactive)
SK-MEL-5
  GI50: 19.7 µM (inactive)
SF-539
  GI50: > 10 µM (inactive)
NCI-H460
  GI50: > 10 µM (inactive)
M14
  GI50: 11.4 µM (inactive)
HOP-62
  GI50: 11.3 µM (inactive)
MOLT-4
  GI50: 4.85 µM (inactive)
SN12C
  GI50: 22 µM (inactive)
HCT-15
  GI50: 18.3 µM
NCI-H522
  GI50: 16.7 µM (inactive)
OVCAR-8
  GI50: > 10 µM (inactive)
